The results in this text go back to paper PMC3842914, “Meleagrin, a New FabI Inhibitor from Penicillium chryosogenum with at Least One Additional Mode of Action” (PLoS ONE, 2013).

One assay has as its target T1, S. aureus FabI (Staphylococcus aureus, UniProt Q6GI75).
T1 construct: made in house
T1 sequence (Q6GI75 1-256): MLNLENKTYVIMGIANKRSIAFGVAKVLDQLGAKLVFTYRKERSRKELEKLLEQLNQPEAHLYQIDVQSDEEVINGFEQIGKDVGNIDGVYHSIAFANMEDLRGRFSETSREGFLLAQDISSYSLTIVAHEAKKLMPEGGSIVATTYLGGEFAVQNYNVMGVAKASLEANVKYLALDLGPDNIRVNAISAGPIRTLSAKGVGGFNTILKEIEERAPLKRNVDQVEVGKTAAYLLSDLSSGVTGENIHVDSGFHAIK
The assay can be described thus: S. aureus FabI enzyme assay (NADPH use at 340 nm, t-o-NAC thioester substrate). In kind it is biochemical. An excerpt:
S. aureus FabI and E. coli FabI enzymes were cloned, overexpressed, and purified as described previously. The wild-type fabK gene was amplified by PCR from genomic DNA obtained from Streptococcus pneumoniae KCTC 5412 by using the primers 5′-[…]-3′ and 5′-[…]-3′, which contained NdeI and XhoI restriction sites, respectively. After the DNA sequence was confirmed, the gene was cloned into the pET22b vector (Novagen, Gibbstown, NJ, USA). The construct was transformed into E. coli BL21 (DE3) for expression following induction with isopropylthiogalactoside. The C-terminal His-tagged protein was purified as described previously. Assays were conducted in half-area, 96-well microtiter plates. The compounds were dissolved in DMSO and evaluated in 100-μL assay mixtures containing components specific for each enzyme (see below). Reduction of the trans-2-octenoyl N-acetylcysteamine (t-o-NAC thioester) substrate analog was measured spectrophotometrically following the utilization of NADH or NADPH at 340 nm at 30°C for the linear period of the assay. S. aureus FabI assays contained 50 mM sodium acetate (pH 6.5), 200 μM t-o-NAC thioester, 200 μM NADPH, and 150 nM S. aureus FabI.
NADH was used as a cofactor rather than NADPH for the E. coli FabI assay. Substrate concentrations used for the Lineweaver–Burk plot were 100, 200, 300, and 400 μM, whereas the concentrations of the cofactor were 100, 200, 400, and 600 μM. The rate of decrease in the amount of NADPH in each reaction was measured with a microtiter enzyme-linked immunosorbent assay (ELISA) reader by using the SOFTmax PRO software (Molecular Devices, Sunnyvale, CA, USA). The inhibitory activity was calculated according to the following formula: % of inhibition = 100× [1− (rate in the presence of compound/rate in the untreated control)]. IC50 values were calculated by fitting the data to a sigmoid equation. An equal volume of DMSO solvent was used for the untreated control. FabK assays contained 100 mM sodium acetate (pH 6.5), 2% glycerol, 200 mM NH4Cl, 50 µM t-o-NAC thioester, 200 µM NADH, and 150 nM S. pneumoniae FabK.

Another assay deals with S. aureus RN4220. The assay can be described thus: MIC by broth microdilution, S. aureus RN4220 (wild type). In kind it is cell-based, Staphylococcus aureus. Conditions: for MIC: Staphylococcus aureus, S. aureus RN4220 (wild type); for Antibacterial activity relative to compound 1: against S. aureus RN4220 and E. coli KCTC 1924. On the procedure: (§1) Whole-cell antimicrobial activity was determined by broth microdilution as described previously. The test strains except for S. pneumoniae were grown to mid-log phase in Mueller–Hinton broth and diluted 1,000-fold in the same medium. Cells (10^5/mL) were inoculated into Mueller–Hinton broth and dispensed at 0.2 mL/well into a 96-well microtiter plate. S. pneumoniae was grown in tryptic soy broth supplemented with 5% sheep blood. MICs were determined in triplicate by serial 2-fold dilutions of test compounds. […] Bacterial growth was determined by measuring the absorption at 650 nm by using a microtiter ELISA reader.
Background: In broth dilution the organism is exposed to a series of concentrations in liquid medium.

The test system of another assay is S. pneumoniae KCTC 3932. The assay can be described thus: MIC by broth microdilution, S. pneumoniae KCTC 3932. Conditions: Streptococcus pneumoniae. It is filed as cell-based. As to the method: as §1
Assay [1] has as its system incorporation of leucine into proteins in S. aureus. The assay can be described thus: [14C] leucine incorporation into proteins in S. aureus. In kind it is cell-based. Conditions: Staphylococcus aureus. On the procedure: To monitor the effects of compound 1 on lipid, DNA, RNA, protein, and cell wall biosynthesis, its effects on the incorporation of [1-^14C] acetate (50 mCi/mmol), [2-^14C] thymidine (59.8 mCi/mmol), [U-^14C] uridine (539 mCi/mmol), L-[U-^14C] leucine (306 mCi/mmol) or L-[U-^14C] isoleucine (329 mCi/mmol), and N-acetyl-D-[1-^14C] glucosamine (58.1 mCi/mmol) into S. aureus and S. pneumoniae were measured as described previously. S. aureus was exponentially grown to an A650 of 0.2 in Mueller–Hinton broth. S. pneumoniae was grown in tryptic soy broth supplemented with 5% sheep blood. […] An equal volume of DMSO solvent was added to the untreated control. After incubation with the radiolabeled precursors at 37°C for 1 h, followed by centrifugation, the cell pellets were washed twice with PBS buffer. After acetate incorporation, the total cellular lipids were extracted with chloroform-methanol-water. The incorporated radioactivity in the chloroform phase was measured by scintillation counting. For the other precursors, incorporation was terminated by adding 10% (w/v) TCA and cooling on ice for 20 min. The precipitated material was collected on Whatman GF/C glass microfiber filters, washed with TCA and ethanol, dried, and counted using a scintillation counter. The total counts incorporated at 1 h of incubation without inhibitors ranged from >7,000 for [U-^14C] uridine to <13,000 for [1-^14C] acetate. […] In all experiments, known antibacterial agents were included as positive controls.
We measured their effects on the incorporation of [1-^14C] acetate into membrane fatty acids in S. aureus. […] In contrast, the incorporation of leucine into proteins was not inhibited by the active compounds (Table 1), whereas the protein synthesis inhibitor, chloramphenicol, inhibited incorporation (data not shown).

For assay [2], the system named is S. aureus RN4220 (pE194-fabI). The assay is described as follows: Overexpression assay, MIC for fabI-overexpressing S. aureus RN4220 (pE194-fabI). To be noted: Staphylococcus aureus, read-out: MIC S. aureus (pE194-fabI). In kind it is cell-based. As to the method: as §1
An overexpression assay using S. aureus RN4220, S. aureus RN4220 (pE194), and S. aureus RN4220 (pE194-fabI) was conducted to perform target validation of FabI inhibitors as described previously. Additionally, both fabI- and fabK-overexpressing E. coli were constructed to test a multitarget effect of the compounds. The wild-type fabI gene from the genomic DNA of E. coli W3110 was amplified by PCR by using the primers 5′-[…]-3′ and 5′-[…]-3′. The wild-type fabK gene from the genomic DNA of S. pneumoniae KCTC 5412 was amplified by PCR by using the primers 5′-[…]-3′ and 5′-[…] […]-3′. The resulting products were cloned into the pBAD-TOPO TA expression vector (Invitrogen, Carlsbad, CA, USA) to yield the pBAD-fabI and pBAD-fabK recombinant plasmids, which placed the expression of the genes fabI and fabK, respectively, under the control of the arabinose promoter. Recombinant pBAD-fabI and pBAD-fabK were then introduced into the pump-negative (tolC) E. coli EW1b via electroporation to generate E. coli EW1b (pBAD-fabI) and E. coli EW1b (pBAD-fabK), respectively.

The mark [3] stands for this setting: with respect to trans-2-octenoyl N-acetylcysteamine.
The mark [4] stands for this setting: KCTC3932, read-out: MIC S. pneumoniae.
Where [5] appears, read: KCTC3932, S. pneumoniae KCTC 3932, read-out: MIC S. pneumoniae.
Where [6] appears, read: S. aureus FabI, read-out: IC50 saFabI.

Converted amounts (≈) assume the structure as drawn. Where two headings read alike, the source gives them in different places.

`C=CC(C)(C)C12C=C(O)C(=O)N3/C(=C/c4cnc[nH]4)C(=O)NC31N(OC)c1ccccc12` (stereo not drawn) [Compound 1, meleagrin]: the IC50 at S. aureus FabI was 40.1 µM; in assay [1], greater than 200 µM. For the same compound, the Ki at S. aureus FabI (with respect to NADPH) stood at 32.3 µM; on S. aureus FabI (setting [3]) it was 39.8 µM. For the same compound, the “Mode of FabI inhibition” value on S. aureus FabI (with respect to NADPH) is “mixed inhibition”; at S. aureus FabI (setting [3]) it was “mixed”. The MIC turned out to be 64 µg/mL (≈ 148 µM) in the assay with S. aureus RN4220, 64 µg/mL (≈ 148 µM) in the assay with S. pneumoniae KCTC 3932 (setting [4]) and 256 µg/mL (≈ 591 µM) in assay [2].

For the compound `C=CC(C)(C)C12C=C(OC)C(=O)N3/C(=C/c4cnc[nH]4)C(=O)NC31N(OC)c1ccccc12` (stereo not drawn) [Compound 3, oxaline], the IC50 on S. aureus FabI is 38.7 µM; in assay [1], greater than 200 µM. Also, the MIC in the assay on S. aureus RN4220 amounted to 64 µg/mL (≈ 143 µM); in the assay with S. pneumoniae KCTC 3932 (setting [5]), 64 µg/mL (≈ 143 µM); in assay [2] it was 256 µg/mL (≈ 572 µM).

Take `C=CC(C)(C)C12C=C(O)C(=O)N3/C(=C/c4cnc[nH]4)C(=O)N(C)C31N(OC)c1ccccc12` (stereo not drawn) [Compound 4, N^14-methylmeleagrin]: the IC50 against S. aureus FabI is 48 µM; in assay [1] it was greater than 200 µM. The MIC against S. aureus RN4220 came to 64 µg/mL (≈ 143 µM); with S. pneumoniae KCTC 3932 (setting [4]), 64 µg/mL (≈ 143 µM); in assay [2], 256 µg/mL (≈ 572 µM).

Turning to `C=CC(C)(C)C12C=C(OC)C(=O)N3/C(=C/c4cnc[nH]4)C(=O)N(C)C31N(OC)c1ccccc12` (stereo not drawn) [Compound 5, O,N^14-dimethylmeleagrin], the IC50 on S. aureus FabI (setting [6]) was 13.5 µM; in assay [1] it was greater than 200 µM. Further, the MIC in the assay on S. aureus RN4220 is 16 µg/mL (≈ 34.7 µM); in the assay on S. pneumoniae KCTC 3932 (setting [5]), 16 µg/mL (≈ 34.7 µM); in assay [2], 128 µg/mL (≈ 277 µM). Besides, the “Antibacterial activity relative to compound 1” value in the assay with S. aureus RN4220 was 2–4 times.

Take `C=CC(C)(C)C12C=C(OC)C(=O)N3/C(=C/c4cnc[nH]4)C(=O)N(C)C31Nc1ccccc12` (stereo not drawn) [Compound 6, O,N^14-dimethylglandicolin]: the results for the IC50 (at S. aureus FabI; in assay [1]) were 13.1 µM and greater than 200 µM, respectively. Further, the results for the MIC (in the assay with S. aureus RN4220; with S. pneumoniae KCTC 3932 (setting [4]); in assay [2]) were 16 µg/mL (≈ 37.1 µM), 16 µg/mL (≈ 37.1 µM) and 128 µg/mL (≈ 297 µM), respectively. In addition, the “Antibacterial activity relative to compound 1” value in the assay with S. aureus RN4220 was 2–4 times.

Consider `C=CC(C)(C)C12C=C(O)C(=O)N3/C(=C/c4cnc[nH]4)C(=O)NC31Nc1c(Br)cccc12` (stereo not drawn) [Compound 7], for which the IC50 (on S. aureus FabI (setting [6]); in assay [1]) was greater than 200 µM each time. Besides, the MIC against S. aureus RN4220 and with S. pneumoniae KCTC 3932 (setting [5]) was greater than 128 µg/mL throughout.

Turning to `Oc1cc(Cl)ccc1Oc1ccc(Cl)cc1Cl` [Triclosan, reference compound], the figures for the MIC (against S. aureus RN4220; with S. pneumoniae KCTC 3932 (setting [4]); in assay [2]) were 0.01 µg/mL (≈ 0.0345 µM), 64 µg/mL (≈ 221 µM) and 1.6 µg/mL (≈ 5.53 µM), respectively. The compound also had an IC50 in assay [1] greater than 10 µM.

What is called IC50 is the concentration that inhibits the measured activity by half. Broadly, the Ki is a dissociation constant, usually derived from enzyme kinetics or from competition with a known ligand. A high value points to lower affinity. A word on the MIC: it is the lowest concentration found to suppress growth.
